These results are taken from paper PMC2000878, “Module structure of interphotoreceptor retinoid-binding protein (IRBP) may provide bases for its complex role in the visual cycle – structure/function study of Xenopus IRBP” (BMC Biochemistry, 2007).

Test [1] has as its target T1, full-length Xenopus IRBP (Xenopus laevis, UniProt Q7SZI7).
T1 construct: We expressed the full-length IRBP as well as its individual modules as thioredoxin-fusion proteins using pTrxFus and pThioHis vectors; made in house; host or cells: E. coli Top10 (pThioHis)
Briefly: Fluorometric titration (ligand fluorescence enhancement, protein quenching, energy transfer). Type of test: binding. An excerpt:
The binding parameters of retinoid-binding proteins including IRBP may be determined by fluorescence spectroscopy. The method utilizes changes in quantum yield occurring during ligand binding. Such changes are represented by enhancement of ligand fluorescence, quenching of intrinsic protein fluorescence, and transfer of energy from protein to bound ligand. Fluorescence enhancement occurs if the quantum yield of the ligand's fluorescence is higher in the hydrophobic environment of the ligand-binding domain compared to that outside of the domain.
[…] We previously derived an equation that is generally useful for describing such quantum yield changes that are consequent upon ligand binding. This equation has been previously applied to the analysis of binding by monitoring the enhancement of retinol fluorescence. In this case, […], the fluorescence enhancement (Fenh) depends on the total retinol concentration (Rt), the dissociation constant (Kd ^all-trans), the number of retinol-binding sites per protein molecule (N) and the total protein concentration (Pt).
(§1) Assuming that there is a single type of noninteracting site on the protein, (Fenh) is expected to be linearly related to the concentration of bound retinol molecules. Fenh is given by the relation
(§2) Fenh=C1+C2[Rtall−trans−(Rtall−trans+NPt+Kdall−trans)^2−4NPtRtall−trans] MathType@MTEF@5@5@+=feaafiart1ev1aaatCvAUfKttLearuWrP9MDH5MBPbIqV92AaeXatLxBI9gBaebbnrfifHhDYfgasaacH8akY=wiFfYdH8Gipec8Eeeu0xXdbba9frFj0=OqFfea0dXdd9vqai=hGuQ8kuc9pgc9s8qqaq=dirpe0xb9q8qiLsFr0=vr0=vr0dc8meaabaqaciaacaGaaeqabaqabeGadaaakeaacqWGgbGrdaWgaaWcbaGaemyzauMaemOBa4MaemiAaGgabeaakiabg2da9iabdoeadnaaBaaaleaacqaIXaqmaeqaaOGaey4kaSIaem4qam0aaSbaaSqaaiabikdaYaqabaGcdaWadaqaaiabdkfasnaaDaaaleaacqWG0baDaeaacqWGHbqycqWGSbaBcqWGSbaBcqGHsislcqWG0baDcqWGYbGCcqWGHbqycqWGUbGBcqWGZbWCaaGccqGHsisldaGcaaqaamaabmaabaGaemOuai1aa0baaSqaaiabdsha0bqaaiabdggaHjabdYgaSjabdYgaSjabgkHiTiabdsha0jabdkhaYjabdggaHjabd6gaUjabdohaZbaakiabgUcaRiabd6eaojabdcfaqnaaBaaaleaacqWG0baDaeqaaOGaey4kaSIaem4saS0aa0baaSqaaiabdsgaKbqaaiabdggaHjabdYgaSjabdYgaSjabgkHiTiabdsha0jabdkhaYjabdggaHjabd6gaUjabdohaZbaaaOGaayjkaiaawMcaamaaCaaaleqabaGaeGOmaidaaOGaeyOeI0IaeGinaqJaemOta4Kaemiuaa1aaSbaaSqaaiabdsha0bqabaGccqWGsbGudaqhaaWcbaGaemiDaqhabaGaemyyaeMaemiBaWMaemiBaWMaeyOeI0IaemiDaqNaemOCaiNaemyyaeMaemOBa4Maem4CamhaaaqabaaakiaawUfacaGLDbaaaaa@8490@
The equation was fit to the data by nonlinear least-squares analysis. […] For the quenching studies the inner filter effect was accounted for by graphical correction as previously described. Fluorescence measurements were made using an SLM 8000TM C photon counting spectrofluorometer corrected for wavelength dependence of source energy and detector response.

For test [2], the target named is Xenopus IRBP Module 1 (Xenopus laevis, UniProt Q7SZI7). Nature of the test: Fluorometric titration (enhancement, quenching). The arrangement: cDNAs corresponding to the full-length IRBP, module 1, and module 2 were expressed in pThioHis; modules 3 and 4 were expressed in pTrxFus; made in house; host or cells: E. coli Top10 (pThioHis). Type of test: binding.
Description: (§3) Enhancement of retinol fluorescence and quenching of the intrinsic protein fluorescence were used to monitor binding of all-trans retinol to the recombinant IRBPs. We previously derived an equation that is generally useful for describing such quantum yield changes that are consequent upon ligand binding. This equation has been previously applied to the analysis of binding by monitoring the enhancement of retinol fluorescence. In this case, where excitation is at 330 nm and emission is monitored at 480, the fluorescence enhancement (Fenh) depends on the total retinol concentration (Rt), the dissociation constant (Kd ^all-trans), the number of retinol-binding sites per protein molecule (N) and the total protein concentration (Pt).
as §1, §2
(§4) The equation was fit to the data by nonlinear least-squares analysis. To follow the quenching of the protein's intrinsic fluorescence the excitation and emission wavelengths were set to 280 nm and 340 nm, respectively, while the protein was titrated with all-trans retinol. For the quenching studies the inner filter effect was accounted for by graphical correction as previously described. Fluorescence measurements were made using an SLM 8000TM C photon counting spectrofluorometer corrected for wavelength dependence of source energy and detector response.

In test [3] the target is T2, Xenopus IRBP Module 2 (Xenopus laevis, UniProt Q7SZI7).
T2 construct: cDNAs corresponding to the full-length IRBP, module 1, and module 2 were expressed in pThioHis; modules 3 and 4 were expressed in pTrxFus; made in house; host or cells: E. coli Top10 (pThioHis)
T2 sequence (Q7SZI7 319-617 limits assumed): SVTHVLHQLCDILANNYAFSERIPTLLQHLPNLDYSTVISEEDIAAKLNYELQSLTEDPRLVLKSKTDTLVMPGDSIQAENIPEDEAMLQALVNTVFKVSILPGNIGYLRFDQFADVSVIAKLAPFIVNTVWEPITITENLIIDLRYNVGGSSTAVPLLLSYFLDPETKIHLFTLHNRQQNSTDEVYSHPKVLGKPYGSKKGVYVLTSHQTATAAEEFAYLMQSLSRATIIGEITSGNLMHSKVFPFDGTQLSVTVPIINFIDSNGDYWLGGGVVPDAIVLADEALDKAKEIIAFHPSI
The arrangement: method as in Loew et al. Exp Eye Res. 2001, 73:257–264. To be noted: ref Loew et al. Exp Eye Res. 2001, 73:257–264, cited from earlier work.

Test [4] deals with T3, Xenopus IRBP Module 3 (Xenopus laevis, UniProt Q7SZI7).
T3 construct: cDNAs corresponding to the full-length IRBP, module 1, and module 2 were expressed in pThioHis; modules 3 and 4 were expressed in pTrxFus; made in house; host or cells: E. coli GI724 / GI698 (pTrxFus)
Nature of the test: Fluorometric titration (enhancement, quenching). It counts as binding.
Description: as §3, §1, §2, §4

The target of test [5] is T4, Xenopus IRBP Module 4 (Xenopus laevis, UniProt Q7SZI7).
T4 construct: cDNAs corresponding to the full-length IRBP, module 1, and module 2 were expressed in pThioHis; modules 3 and 4 were expressed in pTrxFus; made in house; host or cells: E. coli GI724 / GI698 (pTrxFus)
Briefly: Fluorometric titration (enhancement, quenching). It counts as binding.
Description: as §3, §1, §2, §4

Setting [6] is: 9-AS fluorescence enhancement, ex 360 nm, em 440 nm.
The mark [7] stands for this setting: 9-AS fluorescence enhancement, ex 360 nm, em 440 nm, read-out: Kd, Enhancement.
Where [8] appears, read: quenching by 9-AS, ex 280 nm, em 340 nm.
The mark [9] stands for this setting: quenching by 9-AS, ex 280 nm, em 340 nm, read-out: Kd, Quenching.

Read-outs that look alike come from different tables or passages of the source.

In general, Kd refers to the constant that tells how readily two partners part at equilibrium.

Chain of Xenopus IRBP Module 1 (Q7SZI7 23-315): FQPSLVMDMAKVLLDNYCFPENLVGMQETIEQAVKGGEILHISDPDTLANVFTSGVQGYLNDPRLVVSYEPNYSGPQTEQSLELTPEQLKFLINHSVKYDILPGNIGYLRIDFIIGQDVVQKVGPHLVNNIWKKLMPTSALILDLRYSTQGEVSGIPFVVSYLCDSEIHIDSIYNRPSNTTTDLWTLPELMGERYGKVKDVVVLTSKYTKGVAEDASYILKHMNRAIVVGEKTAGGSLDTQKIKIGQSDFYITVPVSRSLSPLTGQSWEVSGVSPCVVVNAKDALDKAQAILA
T3 sequence (Q7SZI7 616-922): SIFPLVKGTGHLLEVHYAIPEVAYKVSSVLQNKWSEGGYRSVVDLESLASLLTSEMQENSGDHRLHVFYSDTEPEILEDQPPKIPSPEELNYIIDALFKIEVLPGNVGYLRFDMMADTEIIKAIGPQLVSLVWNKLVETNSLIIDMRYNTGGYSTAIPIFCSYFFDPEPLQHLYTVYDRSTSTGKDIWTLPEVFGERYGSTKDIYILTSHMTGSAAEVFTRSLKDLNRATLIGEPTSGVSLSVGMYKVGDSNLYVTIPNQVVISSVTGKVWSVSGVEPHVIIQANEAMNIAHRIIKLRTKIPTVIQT
T1 sequence (Q7SZI7 23-1219): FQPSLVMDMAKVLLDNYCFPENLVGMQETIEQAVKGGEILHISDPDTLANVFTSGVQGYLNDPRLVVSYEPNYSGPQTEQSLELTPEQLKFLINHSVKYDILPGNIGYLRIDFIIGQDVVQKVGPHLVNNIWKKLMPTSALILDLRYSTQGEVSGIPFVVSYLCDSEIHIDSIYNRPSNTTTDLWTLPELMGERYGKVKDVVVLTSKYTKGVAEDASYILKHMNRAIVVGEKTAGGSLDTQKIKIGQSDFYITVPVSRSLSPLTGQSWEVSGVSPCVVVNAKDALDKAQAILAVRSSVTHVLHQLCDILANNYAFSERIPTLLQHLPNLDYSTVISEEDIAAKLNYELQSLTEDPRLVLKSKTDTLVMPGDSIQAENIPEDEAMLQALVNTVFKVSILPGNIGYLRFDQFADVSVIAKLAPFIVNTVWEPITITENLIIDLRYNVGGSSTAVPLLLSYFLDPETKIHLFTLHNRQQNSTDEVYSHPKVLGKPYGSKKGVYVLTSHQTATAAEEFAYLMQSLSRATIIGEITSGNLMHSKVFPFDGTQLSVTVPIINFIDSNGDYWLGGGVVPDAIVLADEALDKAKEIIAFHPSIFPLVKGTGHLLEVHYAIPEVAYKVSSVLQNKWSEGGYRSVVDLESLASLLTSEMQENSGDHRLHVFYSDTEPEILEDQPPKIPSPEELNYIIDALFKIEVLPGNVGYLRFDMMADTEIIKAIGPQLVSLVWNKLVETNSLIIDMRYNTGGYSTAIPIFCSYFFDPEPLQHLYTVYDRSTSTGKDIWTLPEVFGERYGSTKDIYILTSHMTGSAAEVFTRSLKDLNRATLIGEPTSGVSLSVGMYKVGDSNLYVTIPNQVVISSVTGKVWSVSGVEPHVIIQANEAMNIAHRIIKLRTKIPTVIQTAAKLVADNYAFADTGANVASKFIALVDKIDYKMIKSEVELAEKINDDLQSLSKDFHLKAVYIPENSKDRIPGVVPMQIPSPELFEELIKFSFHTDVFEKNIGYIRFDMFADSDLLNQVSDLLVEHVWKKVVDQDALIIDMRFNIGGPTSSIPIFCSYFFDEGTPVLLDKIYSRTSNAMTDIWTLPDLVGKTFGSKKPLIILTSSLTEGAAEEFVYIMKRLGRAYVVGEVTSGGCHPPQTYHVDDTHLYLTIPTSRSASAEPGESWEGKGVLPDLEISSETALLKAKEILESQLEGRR
T4 sequence (Q7SZI7 923-1219): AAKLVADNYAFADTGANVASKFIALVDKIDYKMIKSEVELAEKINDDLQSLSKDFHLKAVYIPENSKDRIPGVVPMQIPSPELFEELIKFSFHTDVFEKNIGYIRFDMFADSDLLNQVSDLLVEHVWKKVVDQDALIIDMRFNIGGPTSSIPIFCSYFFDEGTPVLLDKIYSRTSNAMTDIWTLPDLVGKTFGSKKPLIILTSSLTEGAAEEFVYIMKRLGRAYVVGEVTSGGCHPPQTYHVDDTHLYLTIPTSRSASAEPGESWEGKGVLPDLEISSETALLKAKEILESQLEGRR

Take `CCCCCCCCCC(CCCCCCCC(=O)O)OC(=O)c1c2ccccc2cc2ccccc12` (centres unmarked) [9-AS, 9-(9-anthroyloxy) stearic acid]: the “Binding sites (N), Enhancement” value in test [1] (setting [6]) was 2.58 ± 0.17; in test [2] (setting [6]), 2.55 ± 0.24; in test [3] (setting [6]), 1.49 ± 0.15; in test [4] (setting [6]) it was 2.76 ± 0.09; in test [5] (setting [6]), 2.23 ± 0.09. The Kd in test [1] (setting [7]) is 280 ± 70 nM; in test [1] (quenching of protein fluorescence by 9-AS, ex 280 nm, em 340 nm, read-out: Kd, Quenching), 290 ± 110 nM; in test [2] (setting [7]), 330 ± 150 nM; in test [2] (setting [9]) it was 420 ± 100 nM; in test [3] (setting [7]), 250 ± 80 nM; in test [3] (setting [9]) it was 130 ± 20 nM. For the same compound, the Kd came out at 160 ± 410 nM in test [4] (setting [7]), 190 ± 30 nM in test [4] (setting [9]), 82 ± 37 nM in test [5] (setting [7]) and 160 ± 40 nM in test [5] (setting [9]). The “Binding sites (N), Quenching” value in test [1] (quenching of protein fluorescence by 9-AS, ex 280 nm, em 340 nm) is recorded as 0.18 ± 0.29; in test [2] (setting [8]), 0.97 ± 0.19; in test [3] (setting [8]), 0.93 ± 0.06; in test [4] (setting [8]), 1.06 ± 0.07; in test [5] (setting [8]), 0.30 ± 0.09.
